In patent US20040185109A1, “Method for incorporating cationic molecules into a substrate for increasing dispersibility of cationic molecules” (priority 2002, published 2004):

Assay: Determination of useful cationic compounds: dye mixed with organoclay, clean clay, quat or alone in water, centrifuged, examined visually
Format: physicochemical
Details: for Ionic character (cationic or anionic) concluded from the visual results: conclusion from Test Tubes 1-4
Source text: At the outset of the method of the present invention, it must first be determined if a particular compound or molecule will be able to undergo the method of enhancing its dispersibility and thereby its cationic properties as disclosed herein. Thus, a determination must be made (for example, if the ionic character of a certain compound is unknown) whether or not the ion or molecule comprises an cationic portion that will ion exchange onto the surface of a substrate such as a clay or an organoclay. Thus, the molecule or ion can be tested in order to determine whether it has a cationic character (and thus can undergo the present method) or an anionic character or a neutral character. In testing certain molecules or ions, the procedure described below was employed.
Using Jarocol Straw Yellow dye as a representative example, four 1 mg samples of the dye were weighed and placed in 4 test tubes.
Subsequently, 10 mL of water were added to each of the four test tubes, and all of the samples were mixed well for 30 seconds. The samples from each of the test tubes were then centrifuged for 15 minutes in a laboratory scale centrifuge.
Next, the resulting centrifuged samples were examined and analyzed (by being compared to the control sample) to determine whether the Jarocol Straw Yellow dye reacted with the organoclay, the clean clay, or the quat, so that it could then be decided if Jarocol Straw Yellow dye has the requisite cationic character to ion exchange onto the surface of a clay and thereby have increased dispersibility in various application systems.
The analysis herein was performed visually, since the six samples tested were dyes. However, non-dye samples may be analyzed through infrared spectroscopy, differential scanning calorimetry (DSC), gas chromatography, UV spectroscopy, thermogravimetric analysis, or the like. For example, for a non-dye sample, the clay may be separated from the water, both parts may be taken to dryness, and the IR spectrum of each may be recorded.
Just as Jarocol Straw Yellow dye was tested using the four test tubes, the other five dye samples were similarly tested.

SMILES | Ionic character (cationic or anionic) concluded from the visual results | Test Tube 4 (Control, sample only) visual result (1 mg dye only, 10 mL water, mixed 30 seconds, centrifuged 15 minutes) | Test Tube 3 (10 mg Quat) visual result (1 mg dye + 10 mg quat, 10 mL water, mixed 30 seconds, centrifuged 15 minutes)
O=C([O-])c1ccccc1-c1c2cc(Br)c(=O)c(Br)c-2oc2c(Br)c([O-])c(Br)cc12.[Na+].[Na+] [D&C Red No. 22 dye] | exhibit anionic character to some extent | – | –
CN(C)c1ccc2nc3ccc(=[N+](C)C)cc-3sc2c1 [Methylene Blue, laboratory reagent dye, methylene blue] | have the requisite cationic character | – | –

The next lines start with results.

Ionic character (cationic or anionic) concluded from the visual results | Test Tube 4 (Control, sample only) visual result (1 mg dye only, 10 mL water, mixed 30 seconds, centrifuged 15 minutes) | SMILES | Test Tube 3 (10 mg Quat) visual result (1 mg dye + 10 mg quat, 10 mL water, mixed 30 seconds, centrifuged 15 minutes)
exhibit anionic character to some extent | – | O=C([O-])C1=NN(c2ccc(S(=O)(=O)[O-])cc2)C(=O)C1N=Nc1ccc(S(=O)(=O)[O-])cc1.[Na+].[Na+].[Na+] (stereo not shown) [FD&C Yellow No. 5 dye] | –
anionic in nature | Water was red | Cc1ccc(N=Nc2c([O-])c(C(=O)O)cc3ccccc23)c(S(=O)(=O)[O-])c1.[Na+].[Na+] [Lithol Rubine B] | formed a highly insoluble reaction product with the quat
exhibit anionic character to some extent | – | CCN(Cc1cccc(S(=O)(=O)[O-])c1)c1ccc(C(=C2C=CC(=[N+](CC)Cc3cccc(S(=O)(=O)[O-])c3)C=C2)c2ccccc2S(=O)(=O)[O-])cc1.[Na+].[Na+] [FD&C Blue No. 1 dye] | –
